According to the supplement of paper PMC10307832:

Assays:
Assay in all cases: relative viability (nuclei count vs DMSO), 5 days (fraction); higher = more cells survive
ChaGo-K-1 = tested on: ChaGo-K-1
Method in brief: (§1)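 Values are medians from duplicate plates. Each reflects relative viability, defined as the nuclei count of treated wells over that of vehicle wells. Lung cancer cell lines in 1536-well plates were pin-tool dosed one day after seeding with one drug alone or with a fixed anchor-drug dose plus five library-drug doses (not always all listed) in √10 steps, then fixed, stained and imaged at 4× after 5 days.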

EKVX = tested on: EKVX
Method in brief: as §1

EMC-BAC-2 = tested on: EMC-BAC-2
Method in brief: as §1

EPLC-272H = tested on: EPLC-272H
Method in brief: as §1

HCC-78 = tested on: HCC-78
Method in brief: as §1

HCC-827 = tested on: HCC-827
Method in brief: as §1

LCLC-103H = tested on: LCLC-103H
Method in brief: as §1

LK-2 = tested on: LK-2
Method in brief: as §1

LU99A = tested on: LU99A
Method in brief: as §1

NCI-H1563 = tested on: NCI-H1563
Method in brief: as §1

NCI-H1666 = tested on: NCI-H1666
Method in brief: as §1

NCI-H1975 = tested on: NCI-H1975
Method in brief: as §1

NCI-H2126 = tested on: NCI-H2126
Method in brief: as §1

NCI-H2342 = tested on: NCI-H2342
Method in brief: as §1

NCI-H23 = tested on: NCI-H23
Method in brief: as §1

NCI-H2405 = tested on: NCI-H2405
Method in brief: as §1

NCI-H322M = tested on: NCI-H322M
Method in brief: as §1

PC-14 = tested on: PC-14
Method in brief: as §1

RERF-LC-KJ = tested on: RERF-LC-KJ
Method in brief: as §1

SK-LU-1 = tested on: SK-LU-1
Method in brief: as §1

SW 1573 = tested on: SW 1573
Method in brief: as §1

SW 900 = tested on: SW 900
Method in brief: as §1

`Cc1sc2c(c1C)C(c1ccc(Cl)cc1)=N[C@@H](CC(=O)OC(C)(C)C)c1nnc(C)n1-2` [JQ1] + Nc1nc2[nH]cc(CCc3ccc(C(=O)N[C@@H](CCC(=O)O)C(=O)O)cc3)c2c(=O)[nH]1 [Pemetrexed] (partner 0.2 µM) was tested, and the relative viability (ChaGo-K-1; first compound 0.04 µM) was 0.25, the relative viability (ChaGo-K-1; first compound 0.1265 µM) was 0.256 and the relative viability (ChaGo-K-1; first compound 0.4 µM) was 0.245. For the same compound, the relative viability (ChaGo-K-1; first compound 1.265 µM) was 0.252, the relative viability (ChaGo-K-1; first compound 4 µM) was 0.243 and the relative viability (EKVX; first compound 0.04 µM) was 0.351. The relative viability (EKVX; first compound 0.1265 µM) was 0.396, the relative viability (EKVX; first compound 0.4 µM) was 0.304 and the relative viability (EKVX; first compound 1.265 µM) was 0.362. It also gave a relative viability (EKVX; first compound 4 µM) of 0.264, a relative viability (EMC-BAC-2; first compound 0.04 µM) of 0.437 and a relative viability (EMC-BAC-2; first compound 0.1265 µM) of 0.369. The relative viability (EMC-BAC-2; first compound 0.4 µM) was 0.365, the relative viability (EMC-BAC-2; first compound 1.265 µM) was 0.366 and the relative viability (EMC-BAC-2; first compound 4 µM) was 0.33. For the same compound, the relative viability (EPLC-272H; first compound 0.04 µM) was 0.309, the relative viability (EPLC-272H; first compound 0.1265 µM) was 0.336 and the relative viability (EPLC-272H; first compound 0.4 µM) was 0.29. For the same compound, the relative viability (EPLC-272H; first compound 1.265 µM) was 0.298, the relative viability (EPLC-272H; first compound 4 µM) was 0.317 and the relative viability (HCC-78; first compound 0.04 µM) was 0.87. For the same compound, the relative viability (HCC-78; first compound 0.1265 µM) was 0.957, the relative viability (HCC-78; first compound 0.4 µM) was 0.977 and the relative viability (HCC-78; first compound 1.265 µM) was 0.91. The relative viability (HCC-78; first compound 4 µM) was 0.866, the relative viability (HCC-827; first compound 0.04 µM) was 0.262 and the relative viability (HCC-827; first compound 0.1265 µM) was 0.255. For the same compound, the relative viability (HCC-827; first compound 1.265 µM) was 0.211, the relative viability (HCC-827; first compound 4 µM) was 0.247 and the relative viability (LCLC-103H; first compound 0.04 µM) was 0.44. The relative viability (LCLC-103H; first compound 0.1265 µM) was 0.385, the relative viability (LCLC-103H; first compound 0.4 µM) was 0.393 and the relative viability (LCLC-103H; first compound 1.265 µM) was 0.359. The relative viability (LCLC-103H; first compound 4 µM) was 0.437, the relative viability (LK-2; first compound 0.04 µM) was 0.282 and the relative viability (LK-2; first compound 0.1265 µM) was 0.29. The relative viability (LK-2; first compound 0.4 µM) was 0.234, the relative viability (LK-2; first compound 1.265 µM) was 0.16 and the relative viability (LK-2; first compound 4 µM) was 0.158. For the same compound, the relative viability (LU99A; first compound 0.04 µM) was 0.173, the relative viability (LU99A; first compound 0.4 µM) was 0.167 and the relative viability (LU99A; first compound 1.265 µM) was 0.15. It also gave a relative viability (LU99A; first compound 4 µM) of 0.153, a relative viability (NCI-H1563; first compound 0.04 µM) of 0.698 and a relative viability (NCI-H1563; first compound 0.1265 µM) of 0.715. The relative viability (NCI-H1563; first compound 0.4 µM) was 0.673, the relative viability (NCI-H1563; first compound 1.265 µM) was 0.47 and the relative viability (NCI-H1563; first compound 4 µM) was 0.491. It also gave a relative viability (NCI-H1666; first compound 0.04 µM) of 0.801, a relative viability (NCI-H1666; first compound 0.1265 µM) of 0.786 and a relative viability (NCI-H1666; first compound 0.4 µM) of 0.697. It also gave a relative viability (NCI-H1666; first compound 1.265 µM) of 0.659, a relative viability (NCI-H1666; first compound 4 µM) of 0.602 and a relative viability (NCI-H1975; first compound 0.04 µM) of 0.284. It also gave a relative viability (NCI-H1975; first compound 0.1265 µM) of 0.233, a relative viability (NCI-H1975; first compound 0.4 µM) of 0.234 and a relative viability (NCI-H1975; first compound 1.265 µM) of 0.19. For the same compound, the relative viability (NCI-H1975; first compound 4 µM) was 0.173, the relative viability (NCI-H2126; first compound 0.04 µM) was 0.71 and the relative viability (NCI-H2126; first compound 0.1265 µM) was 0.721. The relative viability (NCI-H2126; first compound 0.4 µM) was 0.624, the relative viability (NCI-H2126; first compound 1.265 µM) was 0.519 and the relative viability (NCI-H2126; first compound 4 µM) was 0.413. It also gave a relative viability (NCI-H2342; first compound 0.04 µM) of 0.805, a relative viability (NCI-H2342; first compound 0.1265 µM) of 0.73 and a relative viability (NCI-H2342; first compound 0.4 µM) of 0.852. It also gave a relative viability (NCI-H2342; first compound 1.265 µM) of 0.781, a relative viability (NCI-H2342; first compound 4 µM) of 0.617 and a relative viability (NCI-H23; first compound 0.04 µM) of 0.677. The relative viability (NCI-H23; first compound 0.1265 µM) was 0.67, the relative viability (NCI-H23; first compound 0.4 µM) was 0.41 and the relative viability (NCI-H23; first compound 1.265 µM) was 0.208. The relative viability (NCI-H23; first compound 4 µM) was 0.171, the relative viability (NCI-H2405; first compound 0.04 µM) was 1.08 and the relative viability (NCI-H2405; first compound 0.4 µM) was 0.899. For the same compound, the relative viability (NCI-H2405; first compound 1.265 µM) was 0.72, the relative viability (NCI-H2405; first compound 4 µM) was 0.321 and the relative viability (NCI-H322M; first compound 0.04 µM) was 0.625. For the same compound, the relative viability (NCI-H322M; first compound 0.1265 µM) was 0.648, the relative viability (NCI-H322M; first compound 0.4 µM) was 0.515 and the relative viability (NCI-H322M; first compound 1.265 µM) was 0.495. For the same compound, the relative viability (NCI-H322M; first compound 4 µM) was 0.381, the relative viability (PC-14; first compound 0.04 µM) was 0.12 and the relative viability (PC-14; first compound 0.1265 µM) was 0.148. It also gave a relative viability (PC-14; first compound 0.4 µM) of 0.105, a relative viability (PC-14; first compound 1.265 µM) of 0.136 and a relative viability (PC-14; first compound 4 µM) of 0.133. It also gave a relative viability (RERF-LC-KJ; first compound 0.04 µM) of 0.487, a relative viability (RERF-LC-KJ; first compound 0.1265 µM) of 0.481 and a relative viability (RERF-LC-KJ; first compound 0.4 µM) of 0.46. For the same compound, the relative viability (RERF-LC-KJ; first compound 1.265 µM) was 0.33, the relative viability (RERF-LC-KJ; first compound 4 µM) was 0.275 and the relative viability (SK-LU-1; first compound 0.04 µM) was 0.974. For the same compound, the relative viability (SK-LU-1; first compound 0.1265 µM) was 0.766, the relative viability (SK-LU-1; first compound 0.4 µM) was 0.607 and the relative viability (SK-LU-1; first compound 1.265 µM) was 0.278. The relative viability (SK-LU-1; first compound 4 µM) was 0.181, the relative viability (SW 1573; first compound 0.04 µM) was 0.826 and the relative viability (SW 1573; first compound 0.1265 µM) was 0.789. It also gave a relative viability (SW 1573; first compound 0.4 µM) of 0.598, a relative viability (SW 1573; first compound 1.265 µM) of 0.398 and a relative viability (SW 1573; first compound 4 µM) of 0.295. The relative viability (SW 900; first compound 0.04 µM) was 0.472, the relative viability (SW 900; first compound 0.1265 µM) was 0.477 and the relative viability (SW 900; first compound 0.4 µM) was 0.349. The relative viability (SW 900; first compound 1.265 µM) was 0.19 and the relative viability (SW 900; first compound 4 µM) was 0.195.
